# In patent US11312727B1, “Macrocyclic flu endonuclease inhibitors” (Janssen BioPharma, Inc., priority 2018, dated 2022):
# Tested on: Influenza strain A549 A/WSN/33 (H1N1)
# Assay: microbe, parasite or virus in culture
# Type: cell-based
# Details: Influenza A virus, A549, 20 h, A549 cells, influenza A/WSN/33 (H1N1), 20 hours incubation; read-out: A549_A(H1N1) EC50
row,Compound,EC50
1,"O=C1c2c(O)c(=O)ccn2N2CN1CCCCCc1ccncc1[C@@H]2c1ccccc1 (single isomer, unassigned) [Compound 34B, (18*S)-12-hydroxy-18-phenyl-5,6,7,8,9,18-hexahydro-10,17-methanodipyrido[1,2-b:4′,3′-k][1,2,5]triazacyclotridecine-11,13-dione]",> 1000 nM
2,"CC[C@H]1/C=C/COc2c(ccc(Cl)c2F)[C@@H](c2ccccc2)N2CN1C(=O)c1c(O)c(=O)ccn12 (single isomer, unassigned) [Compound 170BA, (9*S,18*R,E)-3-chloro-9-ethyl-4-fluoro-12-hydroxy-18-phenyl-6,9-dihydro-18H-10,17-methanobenzo[b]pyrido[1,2-f][1]oxa[5,6,9]triazacyclotridecine-11,13-dione]",24 nM
3,"O=C1c2c(O)c(=O)ccn2N2CN1[C@@]1(/C=C/COc3cc(F)c(F)c4c3[C@H]2c2ccccc2SC4)CCOC1 (single isomer, unassigned) [Compound 176BA, (3*R, 17a′*S,*E)-24′,25′-difluoro-12′-hydroxy-2′,4,5,17a′-tetrahydro-2H,6′H-spiro[furan-3,9′-[3,4](epiprop[1]en[1]yl[3]ylidene)[10,17]methanobenzo[6,7]thiepino[4,5-c]pyrido[1,2-f][1]oxa[5,6,9]triazacyclotridecine]-11′,13′-dione]",1.1 nM
4,"CC[C@@H]1/C=C/COc2c(ccc(Cl)c2F)[C@@H](c2ccccc2)N2CN1C(=O)c1c(O)c(=O)ccn12 (single isomer, unassigned) [Compound 170BB, (9*R,18*R,E)-3-chloro-9-ethyl-4-fluoro-12-hydroxy-18-phenyl-6,9-dihydro-18H-10,17-methanobenzo[b]pyrido[1,2-f][1]oxa[5,6,9]triazacyclotridecine-11,13-dione]",2 nM
5,"CC[C@H]1/C=C/COc2cccc3c2[C@@H](c2ccccc2SC3)N2CN1C(=O)c1c(O)c(=O)ccn12 [Compound 92BA, (9S,17aS,E)-9-ethyl-12-hydroxy-2,6,9,17a-tetrahydro-3,4-(epiprop[1]en[1]yl[3]ylidene)-10,17-methanobenzo[6,7]thiepino[4,5-c]pyrido[1,2-f][1]oxa[5,6,9]triazacyclotridecine-11,13-dione]",0.7 nM
6,"CC[C@H]1/C=C/COc2c(ccc(F)c2F)[C@H](c2ccccc2C)N2CN1C(=O)c1c(O)c(=O)ccn12 (single isomer, unassigned) [Compound 167BA, (9*S,18*S,E)-9-ethyl-3,4-difluoro-12-hydroxy-18-(o-tolyl)-6,9-dihydro-18H-10,17-methanobenzo[b]pyrido[1,2-f][1]oxa[5,6,9]triazacyclotridecine-11,13-dione]",> 50 nM
7,"CC(C)[C@H]1/C=C/COc2cc(F)c(F)c3c2[C@H](c2ccccc2SC3)N2CN1C(=O)c1c(O)c(=O)ccn12 (single isomer, unassigned) [Compound 169BA, (9*S,17a*R,*E)-24,25-difluoro-12-hydroxy-9-isopropyl-2,6,9,17a-tetrahydro-3,4-(epiprop[1]en[1]yl[3]ylidene)-10,17-methanobenzo[6,7]thiepino[4,5-c]pyrido[1,2-f][1]oxa[5,6,9]triazacyclotridecine-11,13-dione]",0.83 nM
8,"O=C1c2c(O)c(=O)ccn2N2CN1C/C=C\COc1c(ccc(F)c1F)[C@H]2c1ccccc1CF (single isomer, unassigned) [Compound 175A, (18*R,Z)-3,4-difluoro-18-(2-(fluoromethyl)phenyl)-12-hydroxy-6,9-dihydro-18H-10,17-methanobenzo[b]pyrido[1,2-f][1]oxa[5,6,9]triazacyclotridecine-11,13-dione]",2.3 nM
9,"COC[C@H]1/C=C/COc2cc(F)c(F)c3c2[C@H](c2ccccc2SC3)N2CN1C(=O)c1c(O)c(=O)ccn12 (single isomer, unassigned) [Compound 177AA, (9*R,17a*R,*E)-24,25-difluoro-12-hydroxy-9-(methoxymethyl)-2,6,9,17a-tetrahydro-3,4-(epiprop[1]en[1]yl[3]ylidene)-10,17-methanobenzo[6,7]thiepino[4,5-c]pyrido[1,2-f][1]oxa[5,6,9]triazacyclotridecine-11,13-dione]",15 nM
10,"O=C1c2c(O)c(=O)ccn2N2CN1C/C=C\COc1c(F)cccc1[C@H]2c1cccc(F)c1 (single isomer, unassigned) [Compound 59A, (18*R,Z)-4-fluoro-18-(3-fluorophenyl)-12-hydroxy-6,9-dihydro-18H-10,17-methanobenzo[b]pyrido[1,2-f][1]oxa[5,6,9]triazacyclotridecine-11,13-dione]",5 nM
11,"O=C1c2c(O)c(=O)ccn2N2CN1[C@H]1C[C@H]1CCOc1cccc3c1[C@H]2c1ccccc1SC3 (stereo in doubt) [Compound 166B, cis-(11a*RS,12a*RS,13S,20a*S)-15-hydroxy-6,11,11a,12,12a,20a-hexahydro-10H-7,8-(epiprop[1]en[1]yl[3]ylidene)-13,20-methanobenzo[6,7]thiepino[4,5-c]cyclopropa[j]pyrido[1,2-f][1]oxa[5,6,9]triazacyclotridecine-14,16-dione]",28 nM
12,"Cc1ccccc1[C@H]1c2ccc(F)c(F)c2OC/C=C/C2(CCC2)N2CN1n1ccc(=O)c(O)c1C2=O (single isomer, unassigned) [Compound 174B, (18′*S,*E)-3′,4′-difluoro-12′-hydroxy-18′-(o-tolyl)-6′H,18′H-spiro[cyclobutane-1,9′-[10,17]methanobenzo[b]pyrido[1,2-f][1]oxa[5,6,9]triazacyclotridecine]-11′,13′-dione]",1.2 nM
13,"O=C1c2c(O)c(=O)ccn2N2CN1C1(/C=C/COc3cc(F)cc4c3[C@@H]2c2ccccc2SC4)CCC1 (single isomer, unassigned) [Compound 180A, (17a′*R,*E)-24′-fluoro-12′-hydroxy-2′,17a′-dihydro-6′H-spiro[cyclobutane-1,9′-[3,4](epiprop[1]en[1]yl[3]ylidene)[10,17]methanobenzo[6,7]thiepino[4,5-c]pyrido[1,2-f][1]oxa[5,6,9]triazacyclotridecine]-11′,13′-dione]",29 nM
14,"CC[C@@H]1/C=C/COc2c(ccc(F)c2F)[C@H](c2ccccc2C)N2CN1C(=O)c1c(O)c(=O)ccn12 (single isomer, unassigned) [Compound 167BB, (9*R,18*S,E)-9-ethyl-3,4-difluoro-12-hydroxy-18-(o-tolyl)-6,9-dihydro-18H-10,17-methanobenzo[b]pyrido[1,2-f][1]oxa[5,6,9]triazacyclotridecine-11,13-dione]",> 50 nM
15,"O=C1c2c(O)c(=O)ccn2N2CN1C1(/C=C/COc3cc(F)c(F)c4c3[C@H]2c2ncccc2SC4)CCC1 (single isomer, unassigned) [Compound 168B, (21a′*S,*E)-24′,25′-difluoro-16′-hydroxy-6′,21a′-dihydro-10′H-spiro[cyclobutane-1,13′-[7,8](epiprop[1]en[1]yl[3]ylidene)[14,21]methanopyrido[1,2-f]pyrido[2′,3′:6,7]thiepino[4,5-c][1]oxa[5,6,9]triazacyclotridecine]-15′,17′-dione]",0.6 nM
16,"CC[C@H]1/C=C/COc2c(ccc(F)c2Cl)[C@@H](c2ccccc2)N2CN1C(=O)c1c(O)c(=O)ccn12 (single isomer, unassigned) [Compound 173BA, (9*S,18*R,*E)-4-chloro-9-ethyl-3-fluoro-12-hydroxy-18-phenyl-6,9-dihydro-18H-10,17-methanobenzo[b]pyrido[1,2-f][1]oxa[5,6,9]triazacyclotridecine-11,13-dione]",26 nM
17,"O=C1c2c(O)c(=O)ccn2N2CN1C1(/C=C/COc3cc(F)cc4c3[C@H]2c2ccccc2SC4)CCC1 (single isomer, unassigned) [Compound 180B, (17a′*S,*E)-24′-fluoro-12′-hydroxy-2′,17a′-dihydro-6′H-spiro[cyclobutane-1,9′-[3,4](epiprop[1]en[1]yl[3]ylidene)[10,17]methanobenzo[6,7]thiepino[4,5-c]pyrido[1,2-f][1]oxa[5,6,9]triazacyclotridecine]-11′,13′-dione]",0.36 nM
18,"COC[C@@H]1/C=C/COc2cc(F)c(F)c3c2[C@H](c2ccccc2SC3)N2CN1C(=O)c1c(O)c(=O)ccn12 (single isomer, unassigned) [Compound 177AB, (9*S,17a*R,*E)-24,25-difluoro-12-hydroxy-9-(methoxymethyl)-2,6,9,17a-tetrahydro-3,4-(epiprop[1]en[1]yl[3]ylidene)-10,17-methanobenzo[6,7]thiepino[4,5-c]pyrido[1,2-f][1]oxa[5,6,9]triazacyclotridecine-11,13-dione]",0.67 nM
19,"CC[C@@H]1/C=C/COc2c(ccc(F)c2F)[C@@H](c2ccccc2C)N2CN1C(=O)c1c(O)c(=O)ccn12 (single isomer, unassigned) [Compound 167AB, (9*R,18*R,E)-9-ethyl-3,4-difluoro-12-hydroxy-18-(o-tolyl)-6,9-dihydro-18H-10,17-methanobenzo[b]pyrido[1,2-f][1]oxa[5,6,9]triazacyclotridecine-11,13-dione]",0.96 nM
20,"O=C1c2c(O)c(=O)ccn2N2CN1[C@]1(/C=C/COc3cc(F)c(F)c4c3[C@H]2c2ccccc2SC4)CCOC1 (single isomer, unassigned) [Compound 176BB, (3*S, 17a′*S,*E)-24′,25′-difluoro-12′-hydroxy-2′,4,5,17a′-tetrahydro-2H,6′H-spiro[furan-3,9′-[3,4](epiprop[1]en[1]yl[3]ylidene)[10,17]methanobenzo[6,7]thiepino[4,5-c]pyrido[1,2-f][1]oxa[5,6,9]triazacyclotridecine]-11′,13′-dione]",1.4 nM
21,"CC[C@H]1/C=C/COc2c(ccc(F)c2F)[C@@H](c2ccccc2C)N2CN1C(=O)c1c(O)c(=O)ccn12 (single isomer, unassigned) [Compound 167AA, (9*S,18*R,E)-9-ethyl-3,4-difluoro-12-hydroxy-18-(o-tolyl)-6,9-dihydro-18H-10,17-methanobenzo[b]pyrido[1,2-f][1]oxa[5,6,9]triazacyclotridecine-11,13-dione]",0.91 nM

# Tested on: not listed separately
# Assay: in vitro
# Details: human, CC50, uninfected A549 cells, CellTiter-Glo
row,Compound,CC50
1,"O=C1c2c(O)c(=O)ccn2N2CN1CCCCCc1ccncc1[C@@H]2c1ccccc1 (single isomer, unassigned) [Compound 34B, (18*S)-12-hydroxy-18-phenyl-5,6,7,8,9,18-hexahydro-10,17-methanodipyrido[1,2-b:4′,3′-k][1,2,5]triazacyclotridecine-11,13-dione]",> 2000 nM
